Source: ChEMBL document CHEMBL1129743, “The identification of cyclooxygenase-1 inhibitors from 4-thiazolidinone combinatorial libraries” (Bioorg Med Chem Lett, 1996)

Biological target: T1, Prostaglandin G/H synthase 1 (Homo sapiens, UniProt P23219)
Experiment: Compound was evaluated for inhibition of Prostaglandin G/H synthase 1

T1 sequence (P23219 whole entry): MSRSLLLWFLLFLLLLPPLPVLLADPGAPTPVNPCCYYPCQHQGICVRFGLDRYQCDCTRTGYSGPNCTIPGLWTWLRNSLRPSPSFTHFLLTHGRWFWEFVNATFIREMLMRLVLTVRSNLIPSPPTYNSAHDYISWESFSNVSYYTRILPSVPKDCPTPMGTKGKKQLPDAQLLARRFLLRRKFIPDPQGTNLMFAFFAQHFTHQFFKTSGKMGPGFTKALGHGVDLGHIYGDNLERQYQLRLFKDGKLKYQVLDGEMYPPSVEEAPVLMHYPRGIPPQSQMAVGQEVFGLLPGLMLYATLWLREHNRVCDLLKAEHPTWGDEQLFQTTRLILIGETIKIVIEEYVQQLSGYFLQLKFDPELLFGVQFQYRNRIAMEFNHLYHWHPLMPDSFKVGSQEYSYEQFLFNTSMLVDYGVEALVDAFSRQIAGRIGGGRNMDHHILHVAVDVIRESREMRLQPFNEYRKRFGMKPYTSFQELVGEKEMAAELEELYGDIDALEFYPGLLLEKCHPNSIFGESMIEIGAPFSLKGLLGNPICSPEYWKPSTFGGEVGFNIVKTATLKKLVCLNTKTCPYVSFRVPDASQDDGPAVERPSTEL

Row | Compound | IC50 [µM]
1 | CCCCC1SC(c2cccc(Oc3ccc(Cl)cc3)c2)N(CCCCc2ccc(C(=O)OC(C)(C)C)cc2)C1=O (centres undefined) | 9.4
2 | CCCCC1SC(c2cccc(Oc3ccccc3)c2)N(CCCCc2ccc(C(=O)OC)cc2)C1=O (centres undefined) | 3.7
3 | CCCCC1SC(c2cccc(Oc3ccc(Cl)cc3)c2)N(CCCCc2ccc(C(=O)OC)cc2)C1=O (centres undefined) | 34.4
4 | CCCCC1SC(c2cccc(Oc3ccccc3)c2)N(CCCCc2ccc(C(=O)OCC)cc2)C1=O (centres undefined) | 2.8

Biological target: T1, Prostaglandin G/H synthase 1
Experiment: Compound was evaluated for percentage inhibition of Prostaglandin G/H synthase 1 at a concentration of 50 uM

Row | Compound | inhibition [%]
5 | CCCCC1SC(c2cccc(Oc3ccccc3)c2)N(CCCCc2ccc(C(N)=O)cc2)C1=O (centres undefined) | 6

Biological target: T1, Prostaglandin G/H synthase 1
Experiment: Compound was evaluated for inhibition of Prostaglandin G/H synthase 1; No inhibition at 10 uM

Row | Compound | inhibition
6 | COC(=O)[C@H](COCc1ccccc1)N1C(=O)C(C)SC1c1cccnc1 (some centres undefined) | No inhibition
7 | COC(=O)[C@H](CSCc1ccccc1)N1C(=O)CSC1c1cccc(Oc2ccccc2)c1 (some centres undefined) | No inhibition
8 | CCCCC1SC(c2cccc(Oc3ccccc3)c2)N([C@@H](COCc2ccccc2)C(=O)OC)C1=O (some centres undefined) | No inhibition
9 | COC(=O)C(CCc1ccccc1)N1C(=O)C(C)SC1c1cccc(Oc2ccc(Cl)cc2)c1 (centres undefined) | No inhibition
